Results on 15 compounds are retold here after patent US12110289B2, “Heterocyclic compounds, preparation methods and uses thereof” (InventisBio Co., Ltd., priority 2020, dated 2024).

The first assay deals with Lung cancer cell line NCI-H358 containing KRas G12C mutation. The assay is described as follows: Assay for cell proliferation (Cell-titer Glo, 5 days). It counts as cell-based, human. To be noted: Homo sapiens, NCI-H358, 120 h, NCI-H358, 5 days, Cell-titer Glo; read-out: IC50 (nM), Inhibition of NCI-H358 Cell Proliferation. Summed up:
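NCI-H358 (KRas G12C) cells, 2000 per well, attached overnight at 37 °C, 5% CO2, then treated with compound for 5 days at 0.5% DMSO final. Proliferation measured by CellTiter-Glo luminescence after 10 min at RT.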
Turning to `C=CC(=O)N1CCN(c2nc(=O)n(-c3c(C4CC4)nc(N4CCNCC4)nc3C3CC3)c3nc(-c4ccccc4F)c(Cl)cc23)[C@@H](C)C1` [Compound 116], the IC50 came out at 15.8 nM.
Consider `C=CC(=O)N1CCN(c2nc(=O)n(-c3c(C(C)C)nc4ocnc4c3C)c3nc(-c4ccccc4F)c(Cl)cc23)[C@@H](C)C1` [Compound 117], for which the IC50 worked out at 12.9 nM.
In the case of `C=CC(=O)N1CCN(c2nc(=O)n(-c3c(C(C)C)nc(C(F)(F)F)nc3C(C)C)c3nc(-c4c(N)cccc4F)c(F)cc23)[C@@H](C)C1` [Compound 118], the IC50 is 40.2 nM.
The same measure, in the same setting: the same measure for `C=CC(=O)N1CCN(c2nc(=O)n(-c3c(C4CC4)nc(OC(F)F)nc3C3CC3)c3nc(-c4c(N)cccc4F)c(F)cc23)[C@@H](C)C1` [Compound 119]: 9.6 nM; for `C[C@H]1CN(C(=O)/C=C/CN2CC(F)C2)CCN1c1nc(=O)n(-c2c(C3CC3)ncnc2C2CC2)c2nc(-c3c(N)cccc3F)c(Cl)cc12` [Compound 120]: 146 nM.
Still for that read-out and setting: the same measure for `C=CC(=O)N1C[C@H](C)N(c2nc(=O)n(-c3c(C(C)C)nc(C(=O)O)nc3C(C)C)c3nc(-c4ccccc4F)c(F)cc23)C[C@H]1C` [Compound 121]: > 3000 nM.
The same measure, in the same setting: the same measure for `C=CC(=O)N1C[C@H](C)N(c2nc(=O)n(-c3c(C(C)C)nc(C(=O)O)nc3C(C)C)c3nc(-c4c(O)cccc4F)c(F)cc23)C[C@H]1C` [Compound 122]: > 3000 nM; for `C=CC(=O)N1C[C@H](C)N(c2nc(=O)n(-c3c(C(C)C)nc(C(=O)O)nc3C(C)C)c3nc(-c4c(N)cccc4F)c(F)cc23)C[C@H]1C` [Compound 123]: > 3000 nM; for `C=C(F)C(=O)N1CCN(c2nc(=O)n(-c3c(C4CC4)ncnc3C3CC3)c3nc(-c4c(N)cccc4F)c(Cl)cc23)[C@@H](C)C1` [Compound 131]: 210 nM.
`C=C(F)C(=O)N1C[C@H](C)N(c2nc(=O)n(-c3c(C4CC4)ncnc3C3CC3)c3nc(-c4c(N)cccc4F)c(Cl)cc23)C[C@H]1C` [Compound 132]: the IC50 amounted to 157 nM.
The same measure, in the same setting: the same measure for `COC/C=C/C(=O)N1C[C@H](C)N(c2nc(=O)n(-c3c(C4CC4)ncnc3C3CC3)c3nc(-c4c(N)cccc4F)c(Cl)cc23)C[C@H]1C` [Compound 140]: 58.7 nM; for `C=CC(=O)N1C[C@H](C)N(c2nc(=O)n(-c3c(F)cc4c(ncn4C)c3C(C)C)c3nc(-c4c(O)cccc4F)c(Cl)cc23)C[C@H]1C` [Compound 166]: 1.5 nM.

The same assay, now with this note: NCI-H358, 5 days, Cell-titer Glo; read-out: IC50 (nM), Inhibition of NCI-H358 Cell Proliferation.
Regarding `C=CC(=O)N1CCN(c2nc(=O)n(-c3c(C)cc4c(ncn4C)c3C(C)C)c3nc(-c4c(N)cccc4F)c(Cl)cc23)[C@@H](C)C1` [Compound 152], the IC50 was found to be 0.4 nM.
As to `C=CC(=O)N1CCN(c2nc(=O)n(-c3c(C)nc4c(ncn4C)c3C(C)C)c3nc(-c4c(N)cccc4F)c(F)cc23)[C@@H](C)C1` [Compound 157], the IC50 was found to be 152 nM.
For the compound `C=CC(=O)N1C[C@H](C)N(c2nc(=O)n(-c3c(C(C)C)nc4c(ncn4C)c3C)c3nc(-c4ccccc4F)c(Cl)cc23)C[C@H]1C` [Compound 181], the IC50 worked out at 44.4 nM.
